Source: ChEMBL document CHEMBL6178005, “Novel Nonpeptide as Oxytocin Receptor Agonist” (ACS Med Chem Lett, 2025)

Target: Vasopressin V1a receptor (Homo sapiens, UniProt P37288)
Test: Antagonist activity at vasopressin V1A receptor (unknown origin) assessed as calcium level
Type: functional

Vasopressin V1a receptor, sequence (P37288 whole entry): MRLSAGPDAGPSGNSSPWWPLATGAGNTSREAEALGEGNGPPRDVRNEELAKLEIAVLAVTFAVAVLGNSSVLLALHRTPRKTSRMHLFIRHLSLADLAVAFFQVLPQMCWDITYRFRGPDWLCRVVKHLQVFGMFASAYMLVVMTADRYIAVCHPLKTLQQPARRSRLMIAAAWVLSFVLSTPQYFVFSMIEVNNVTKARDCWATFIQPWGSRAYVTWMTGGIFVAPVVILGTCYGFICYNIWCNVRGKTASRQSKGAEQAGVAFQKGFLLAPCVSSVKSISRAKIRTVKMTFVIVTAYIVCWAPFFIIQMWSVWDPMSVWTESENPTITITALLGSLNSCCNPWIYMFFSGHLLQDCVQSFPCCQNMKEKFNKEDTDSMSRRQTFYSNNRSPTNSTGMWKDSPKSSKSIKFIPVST

Row | SMILES | IC50 [µM]
1 | Cc1cc(C(=O)N2Cc3cnn(C)c3Nc3ccccc32)ccc1CNC(=O)N1C[C@H](OCc2cc(O)cc(O)c2)C[C@H]1C(=S)N(C)C | 2.43
2 | Cc1cc(C(=O)N2Cc3cnn(C)c3Nc3ccccc32)ccc1CNC(=O)N1C[C@H](OCCO)C[C@H]1C(=S)N(C)C | 0.585
